Square brackets hold non-standard residues; d marks the D form. Ends that are not written are not given here. Peptide text beside a SMILES is read from it. Nle = CCCC[C@H](N)C(=O)O
Assays:
[1] = cited from earlier work
[2] = Solubility and aggregation of peptide compared with SEQ ID NO. 1; assay type: physicochemical; details: Met and Cys replaced by norleucine and serine
From the text: Another example of such an amino acid sequence is TKWPVDN/eSPNVS (SEQ ID. NO. 6). In comparison with SEQ ID. NO. 1, replacement of the oxidation-prone amino acids (methionine and cysteine) with their biosteric counterparts (norleucine and serine respectively) in SEQ ID. NO. […] The peptide ligands of the instant invention also include variants or homologues of SEQ ID NO: 6, which may be at least 75% identical to SEQ ID NO: 6 or which may contain conservative substitutions of corresponding amino acid residues.

[3] = tested on: Caco-2 intestinal epithelial monolayer; assay: Transport of FITC-labeled peptide across Caco-2 intestinal epithelial monolayer; assay type: cell-based, human; details: Caco-2 monolayers, n=3, p<0.05
From the text: FIG. 2. Illustrates that peptide-labeled #12 (SEQ ID NO. 2) and its sequence-scrambled peptide FITC-12C1 were transported across Caco-2 intestinal epithelial monolayer in the presence and absence of chylomicron lipid-forming micelles.
Fluorescently labeled peptides according to SEQ ID NOS. 1 and 3 were synthesized. The peptide according to SEQ ID NO. […] The peptide according to SEQ ID NO. […] Therefore, the peptide according to SEQ ID NO. 2 aggregate may be viewed as a small nanoparticle displaying some peptides according to SEQ ID NO. 2 in correct orientation (i.e., on the surface not buried inside the nanoparticle). Even with this imperfect display, some increase in chylomicron lipid-dependent translocation across Caco-2 monolayers is still noticeable over a scrambled peptide according to SEQ ID NO. 1 (12C1) (FIG. 2). FITC-12 was 4.6-fold more efficiently transported than the sequence-scrambled control (FIG. 2).

Molecule	LogP [1]	other results
Cc1cc(C2CCCCC2)n(O)c(=O)c1 [Ciclopirox]	2.2	
CC(C)CN(C[C@@H](O)[C@H](Cc1ccccc1)NC(=O)O[C@H]1CO[C@H]2OCC[C@H]21)S(=O)(=O)c1ccc(N)cc1 [Darunavir]	1.8	
C[C@@H]1CCO[C@H]2Cn3cc(C(=O)NCc4ccc(F)cc4F)c(=O)c(O)c3C(=O)N12 [Dolutegravir]	1.0	
CCCC[C@H](NC(=O)[C@H](CC(=O)O)NC(=O)[C@@H](NC(=O)[C@@H]1CCCN1C(=O)[C@H](Cc1c[nH]c2ccccc12)NC(=O)[C@H](CCCCN)NC(=O)[C@@H](N)[C@@H](C)O)C(C)C)C(=O)N[C@@H](CO)C(=O)N1CCC[C@H]1C(=O)N[C@@H](CC(N)=O)C(=O)N[C@H](C(=O)N[C@@H](CO)C(=O)O)C(C)C [SEQ ID. NO. 6, TKWPVDN/eSPNVS] (H-TKWPVD[Nle]SPNVS-OH; N-terminus and C-terminus assumed)		solubility in comparison with SEQ ID. NO. 1 [2]: better solubility
FITC-12: fluorescently (FITC) labeled peptide #12 (SEQ ID NO. 2) (QDDVQTWQRQPK; also: FITC label, position not given here)		transport efficiency relative to sequence-scrambled control (12C1) [3]: 4.6 fold

— patent US9566349B2, “Intestinal peptide targeting ligands” (Rutgers, The State University of New Jersey, priority 2010, dated 2017)
